Read-outs that look alike come from different tables or passages of the source.
What was measured:
[1] = molecular target: SARS-CoV-2 RdRp complex nsp12/nsp8/nsp7 (Severe acute respiratory syndrome coronavirus 2, UniProt P0DTD1); test: biochemical; details: for inhibition at 50 µM: read-out: Inhibition Rate (%); for IC50: seven concentrations 0.4 to 100 μM, mean ± SD of two independent experiments, read-out: IC50 against SARS-CoV-2 RdRp
[2] = system: SARS-CoV-2; details: cited from earlier work
[3] = in vitro; details: African green monkey
[4] = in vitro; details: human
[5] = molecular target: Dengue virus RdRp (DENV NS5) (Dengue virus type 3, UniProt Q6YMS4); test: Fluorescent plate DENV RdRp assay; type: biochemical; details: for IC50: purified recombinant Dengue virus RdRp, average ± SD of 2 independent experiments; for Detectable inhibition towards DENV RdRp: screen of Table 1 compounds
Protocol: To further exploit pan-RNA virus inhibition of the compounds in Table 1, the compounds were evaluated as potential inhibitors of the RdRp domain of DENV NS5. We used a fluorescent-based assay to screen the compounds from Table 1 as potential DENV RdRp inhibitors.
Expression and purification of recombinant Dengue virus NS5 has been described previously. Florescent plate assay based on poly rC RNA and the fluorescent dye PicoGreen was well established for screening inhibitors against Dengue virus RdRp activity. RdRp assays were performed in a 60 μL reaction mixture containing 1.5 μM DENV NS5, 1 µg poly rC, 100 μM GTP, various concentrations of compounds, 5% DMSO, 40 mM Tris–HCl (pH 7.0), 2 mM MnCl2, and 5 mM DTT. The reaction was incubated at 30 °C for 60 min and terminated with 10 mM EDTA after which 100 μL of 200-fold diluted fluorescent dye PicoGreen in TE buffer was added to each well and incubated for 5 min at room temperature. Microplate reader was used to quantitate the amount of dsRNA Fluorescence, under excitation and emission wavelengths of 480 and 520 nm, respectively. Dose-response data were analyzed by nonlinear regression using GraphPad Prism 9.2.0 software. The mean of IC50 values and standard deviation (SD) were determined from the results of two independent experiments.

[6] = system: SARS-CoV-2; test: microbe, parasite or virus in culture; type: cell-based; details: for EC50: Severe acute respiratory syndrome coronavirus 2, Vero C1008
[7] = system: DENV3; test: DENV3 cell-based qRT-PCR antiviral assay in A549 cells; details: for EC50 / Selective Index: DENV3/A549
Protocol: The virus DENV3 clinical strain and A549 cells were used in the cell-based qRT-PCR antiviral assays. Evaluation of antiviral activity was performed as described previously. Briefly, cells infected by dengue virus in the presence of 5-fold serial dilutions of compounds were maintained for 72 h. Supernatant was collected and the virus yield was measured by Cells Direct One-step qRT-PCR kit (Thermo Fisher), according to manufacturer’s instructions. Dose-response data were analyzed by nonlinear regression using GraphPad Prism software. The toxicity of compounds was evaluated in standard MTS analysis without virus in A549 cell line. Graphpad Prism 9.2.0 was used to calculate EC50 (half maximal effective concentration) and CC50 (half cytotoxic concentration) values.

[8] = system: DENV; parameters: method as in PMID 26574011, PMID 33160000; details: cited from earlier work
[9] = system: DENV3; parameters: method as in PMID 34424050; details: DENV3 in vitro; cited from earlier work
[10] = system: DENV2; parameters: method as in PMID 34424050; details: DENV2 in vitro; cited from earlier work
[11] = preliminary screening, single concentration of 50 μM

Chain of Dengue virus RdRp (DENV NS5) (Q6YMS4 2491-3390 limits assumed): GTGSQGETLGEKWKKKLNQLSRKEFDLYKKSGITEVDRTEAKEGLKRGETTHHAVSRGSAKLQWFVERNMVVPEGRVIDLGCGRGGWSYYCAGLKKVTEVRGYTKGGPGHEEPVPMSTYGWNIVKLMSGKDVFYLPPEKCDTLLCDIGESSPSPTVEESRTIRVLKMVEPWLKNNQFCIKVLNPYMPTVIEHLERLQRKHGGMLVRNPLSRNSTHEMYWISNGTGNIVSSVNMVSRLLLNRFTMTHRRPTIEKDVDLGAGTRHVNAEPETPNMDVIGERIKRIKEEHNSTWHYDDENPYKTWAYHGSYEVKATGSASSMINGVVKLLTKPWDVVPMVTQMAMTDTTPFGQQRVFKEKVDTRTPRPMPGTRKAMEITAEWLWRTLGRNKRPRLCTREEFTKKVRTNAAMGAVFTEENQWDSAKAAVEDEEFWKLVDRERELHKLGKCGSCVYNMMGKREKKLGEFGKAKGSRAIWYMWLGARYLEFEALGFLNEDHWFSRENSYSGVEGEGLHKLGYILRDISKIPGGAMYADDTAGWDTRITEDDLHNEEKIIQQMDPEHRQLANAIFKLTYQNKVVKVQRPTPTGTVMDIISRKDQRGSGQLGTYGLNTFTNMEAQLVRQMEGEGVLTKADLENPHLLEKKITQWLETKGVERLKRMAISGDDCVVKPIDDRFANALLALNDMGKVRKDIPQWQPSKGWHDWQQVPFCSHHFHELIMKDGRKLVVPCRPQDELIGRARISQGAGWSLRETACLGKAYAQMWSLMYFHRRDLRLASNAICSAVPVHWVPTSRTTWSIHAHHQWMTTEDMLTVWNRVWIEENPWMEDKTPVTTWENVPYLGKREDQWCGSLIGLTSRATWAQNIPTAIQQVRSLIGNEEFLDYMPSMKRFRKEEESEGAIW

Compound: Nc1ccc(S(=O)(=O)N2CCN(C(=O)c3cc(O)c(O)c(O)c3)CC2C(=O)NCc2ccc(-c3ccccc3)cc2)cc1 (centres unmarked) [DF-69]
- melting point: 192 to 195 °C
- inhibition at 50 µM [1]: 72%

Compound: CC(C)(C)OC(=O)N1CCC2(CCN(C(=O)C3CN(C(=O)c4cc(O)c(O)c(O)c4)CCN3S(=O)(=O)c3ccc(N)cc3)C2)C1 (centres unmarked) [DF-71]
- melting point: 192 to 195 °C
- inhibition at 50 µM [1]: 70%

Compound: Nc1ccc(S(=O)(=O)N2CCN(C(=O)c3cc(O)c(O)c(O)c3)CC2C(=O)NCc2cccs2)cc1 (centres unmarked) [DF-68]
- melting point: 213 to 216 °C
- inhibition at 50 µM [1]: 73%

Compound: CC(C)C(=O)OC[C@H]1O[C@@H](n2ccc(NO)nc2=O)[C@H](O)[C@@H]1O [Molnupiravir]
- EC50 ([2]; nucleoside RdRp inhibitors): 0.3 µM

Compound: N#Cc1ccc(S(=O)(=O)N2CCN(C(=O)c3cc(O)c(O)c(O)c3)C(C(=O)NCc3ccc(-c4ccccc4)cc3)C2)cc1 (centres unmarked) [DF-51]
- CC50 [3]: > 100 µM
- CC50 [4]: > 100 µM
- IC50 [5]: 4.8 ± 0.7 µM
- Detectable inhibition towards DENV RdRp [5]: detectable inhibition
- Antiviral activity against SARS-CoV-2 in vitro [6]: no significant antiviral activity
- EC50 [6]: > 89 µM
- Inhibition of DENV3 in A549 cells [7]: moderate inhibition
- EC50 [7]: 21.5 ± 14.9 µM
- Selective Index [7]: >4.6
- Inhibition of RdRp activity at 10 μM (gel) [1]: remained partially active
- inhibition at 50 µM [1, 11]: 90%
- IC50 [1]: 22 ± 1.3 µM

Compound: O=c1cc(-c2ccccc2)oc2cc(O)c(O)c(O)c12 [Baicalein, reference compound]
- CC50 [3]: 86 µM
- Selective Index [6]: 19.1
- EC50 [6]: 4.5 µM
- Inhibition of RdRp activity at 10 μM (gel) [1]: remained partially active

Compound: Nc1ccc(S(=O)(=O)N2CCN(C(=O)c3cc(O)c(O)c(O)c3)C(C(=O)NCc3ccc(-c4ccccc4)cc3)C2)cc1 (centres unmarked) [DF-47]
- CC50 [3]: > 100 µM
- CC50 [4]: > 100 µM
- IC50 [5]: 14 ± 2.3 µM
- Detectable inhibition towards DENV RdRp [5]: detectable inhibition
- Antiviral activity against SARS-CoV-2 in vitro [6]: no significant antiviral activity
- EC50 [6]: > 100 µM
- Inhibition of DENV3 in A549 cells [7]: moderate inhibition
- EC50 [7]: 51.9 ± 26.3 µM
- Selective Index [7]: >1.9
- melting point: 193 to 196 °C
- Inhibition of RdRp activity at 10 μM (gel) [1]: remained partially active
- inhibition at 50 µM [1, 11]: 92%
- IC50 [1]: 9.2 ± 1.1 µM

Compound: O=C(NO)c1ncc(CS(=O)(=O)c2ccccc2)c(CO)c1O [DMB220]
- EC50 [8]: 2.7 ± 0.6 µM

Compound: COc1ccc(CNC(=O)C2CN(C(=O)c3cc(O)c(O)c(O)c3)CCN2S(=O)(=O)c2ccc(N)cc2)cc1 (centres unmarked) [DF-64]
- melting point: 202 to 205 °C
- inhibition at 50 µM [1]: 80%

Compound: Nc1ccc(S(=O)(=O)N2CCN(C(=O)c3cc(O)c(O)c(O)c3)CC2C(=O)NCc2cccc3ccccc23)cc1 (centres unmarked) [DF-67]
- melting point: 189 to 192 °C
- inhibition at 50 µM [1]: 83%

Compound: O=C(O)[C@H]1O[C@@H](Oc2cc3oc(-c4ccccc4)cc(=O)c3c(O)c2O)[C@H](O)[C@@H](O)[C@@H]1O [Baicalin]
- EC50 ([2]; SARS-CoV-2 inhibitors): 9 µM

Compound: COc1ccc(CNC(=O)C2CN(S(=O)(=O)c3ccc(N)cc3)CCN2C(=O)c2cc(O)c(O)c(O)c2)cc1 (centres unmarked) [DF-35]
- melting point: 192 to 195 °C
- inhibition at 50 µM [1]: 81%

Compound: Nc1ccc(S(=O)(=O)N2CCN(C(=O)c3cc(O)c(O)c(O)c3)CC2C(=O)Nc2ccccc2)cc1 (centres unmarked) [DF-57]
- melting point: 173 to 176 °C
- inhibition at 50 µM [1]: 85%

Compound: Bemnifosbuvir
- EC50 [9]: 0.77 µM
- EC90 [2]: 0.47 µM
- EC50 [10]: 0.48 µM

Compound: CN(C(=O)C1CN(C(=O)c2cc(O)c(O)c(O)c2)CCN1S(=O)(=O)c1ccc(N)cc1)c1ccccc1 (centres unmarked) [DF-63]
- melting point: 172 to 175 °C
- inhibition at 50 µM [1]: 75%

Compound: Nc1ccc(S(=O)(=O)N2CCN(C(=O)c3cc(O)c(O)c(O)c3)C(C(=O)NCc3ccco3)C2)cc1 (centres unmarked) [DF-36]
- melting point: 181 to 184 °C
- Inhibition of RdRp activity at 10 μM (gel) [1]: remained partially active
- inhibition at 50 µM [1]: 87%

Compound: CCC(CC)COC(=O)[C@H](C)N[P@](=O)(OC[C@H]1O[C@@](C#N)(c2ccc3c(N)ncnn23)[C@H](O)[C@@H]1O)Oc1ccccc1 [Remdesivir, reference compound]
- CC50 [3]: 10.1 µM
- EC50 [6]: 0.046 ± 0.0002 µM

From publication PMC9822497, “Identification of Polyphenol Derivatives as Novel SARS-CoV-2 and DENV Non-Nucleoside RdRp Inhibitors” (Molecules, 2022)
